From patent US20250236608A1, “EGFR INHIBITORS” (Blueprint Medicines Corporation, priority 2022, published 2025)
Counter-ions that a name gives are not always drawn.

Tests used:
[1] = biological target: pEGFR (Tyr1068) in PC-9 cells (Ex19Del) (Homo sapiens (Human), UniProt P00533, DEL746-750); test: PC-9 pEGFR AlphaLISA assay; type: cell-based; conditions: 4 hours incubation, p-EGFR (Tyr1068) AlphaLISA, read-out: Ext pEGFR_PC-9 Ex19Del IC50
How it was run: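 Readout: AlphaLISA SureFire Ultra signal in cell lysates, with acceptor beads for 1.5-2 h and donor beads overnight at room temperature in the dark. Beforehand, unstimulated cells in 10% FBS medium received compounds (10 points, 4-fold steps) for 4 h at 37° C. IC50 came from percent inhibition curves.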

[2] = biological target: EGFR (d746-750) (Homo sapiens (Human), UniProt P00533, DEL746-750); test: Biochemical EGFR inhibition assay, EGFR (d746-750); conditions: Caliper mobility shift; 1.0 mM ATP or ATP Km; read-out: Enz EGFR_Exon19-del746-750 IC50
[3] = biological target: EGFR L858R (Homo sapiens (Human), UniProt P00533, L858R); test: Biochemical EGFR inhibition assay, EGFR L858R; conditions: Caliper mobility shift; 1.0 mM ATP or ATP Km; read-out: Enz EGFR_L858R IC50
EGFR L858R, sequence (P00533 25-1210 L858R): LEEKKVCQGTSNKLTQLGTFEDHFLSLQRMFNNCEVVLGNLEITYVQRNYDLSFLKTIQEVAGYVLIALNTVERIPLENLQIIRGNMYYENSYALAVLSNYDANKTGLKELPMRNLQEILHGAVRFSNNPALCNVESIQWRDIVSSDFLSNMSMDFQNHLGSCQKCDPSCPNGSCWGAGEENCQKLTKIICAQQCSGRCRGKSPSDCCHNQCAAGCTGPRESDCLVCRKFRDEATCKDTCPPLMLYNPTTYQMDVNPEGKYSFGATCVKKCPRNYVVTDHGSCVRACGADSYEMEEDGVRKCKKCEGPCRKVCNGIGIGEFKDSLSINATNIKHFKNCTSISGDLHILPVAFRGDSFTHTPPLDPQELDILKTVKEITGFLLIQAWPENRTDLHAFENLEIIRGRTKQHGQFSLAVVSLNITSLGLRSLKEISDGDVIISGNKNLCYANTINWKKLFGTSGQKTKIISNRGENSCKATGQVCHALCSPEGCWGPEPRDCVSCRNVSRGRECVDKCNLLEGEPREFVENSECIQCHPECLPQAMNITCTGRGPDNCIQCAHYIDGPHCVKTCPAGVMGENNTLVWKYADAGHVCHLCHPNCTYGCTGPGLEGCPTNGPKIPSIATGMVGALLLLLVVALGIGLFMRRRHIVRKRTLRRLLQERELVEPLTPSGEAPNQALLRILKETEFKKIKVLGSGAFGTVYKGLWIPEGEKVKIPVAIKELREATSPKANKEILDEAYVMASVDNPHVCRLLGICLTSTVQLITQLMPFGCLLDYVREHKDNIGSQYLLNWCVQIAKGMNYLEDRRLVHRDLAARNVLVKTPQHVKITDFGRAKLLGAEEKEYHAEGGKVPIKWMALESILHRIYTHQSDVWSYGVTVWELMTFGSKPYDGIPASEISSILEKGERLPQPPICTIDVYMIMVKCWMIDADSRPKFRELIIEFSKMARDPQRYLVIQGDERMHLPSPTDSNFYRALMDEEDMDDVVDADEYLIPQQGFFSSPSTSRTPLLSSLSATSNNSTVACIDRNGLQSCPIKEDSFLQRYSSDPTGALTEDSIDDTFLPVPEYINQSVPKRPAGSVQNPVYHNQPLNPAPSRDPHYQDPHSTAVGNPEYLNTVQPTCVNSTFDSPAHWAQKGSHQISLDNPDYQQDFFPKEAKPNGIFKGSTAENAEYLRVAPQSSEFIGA

pEGFR (Tyr1068) in PC-9 cells (Ex19Del), sequence (P00533 other isoform, or with tags, fused parts or gaps del 746-750): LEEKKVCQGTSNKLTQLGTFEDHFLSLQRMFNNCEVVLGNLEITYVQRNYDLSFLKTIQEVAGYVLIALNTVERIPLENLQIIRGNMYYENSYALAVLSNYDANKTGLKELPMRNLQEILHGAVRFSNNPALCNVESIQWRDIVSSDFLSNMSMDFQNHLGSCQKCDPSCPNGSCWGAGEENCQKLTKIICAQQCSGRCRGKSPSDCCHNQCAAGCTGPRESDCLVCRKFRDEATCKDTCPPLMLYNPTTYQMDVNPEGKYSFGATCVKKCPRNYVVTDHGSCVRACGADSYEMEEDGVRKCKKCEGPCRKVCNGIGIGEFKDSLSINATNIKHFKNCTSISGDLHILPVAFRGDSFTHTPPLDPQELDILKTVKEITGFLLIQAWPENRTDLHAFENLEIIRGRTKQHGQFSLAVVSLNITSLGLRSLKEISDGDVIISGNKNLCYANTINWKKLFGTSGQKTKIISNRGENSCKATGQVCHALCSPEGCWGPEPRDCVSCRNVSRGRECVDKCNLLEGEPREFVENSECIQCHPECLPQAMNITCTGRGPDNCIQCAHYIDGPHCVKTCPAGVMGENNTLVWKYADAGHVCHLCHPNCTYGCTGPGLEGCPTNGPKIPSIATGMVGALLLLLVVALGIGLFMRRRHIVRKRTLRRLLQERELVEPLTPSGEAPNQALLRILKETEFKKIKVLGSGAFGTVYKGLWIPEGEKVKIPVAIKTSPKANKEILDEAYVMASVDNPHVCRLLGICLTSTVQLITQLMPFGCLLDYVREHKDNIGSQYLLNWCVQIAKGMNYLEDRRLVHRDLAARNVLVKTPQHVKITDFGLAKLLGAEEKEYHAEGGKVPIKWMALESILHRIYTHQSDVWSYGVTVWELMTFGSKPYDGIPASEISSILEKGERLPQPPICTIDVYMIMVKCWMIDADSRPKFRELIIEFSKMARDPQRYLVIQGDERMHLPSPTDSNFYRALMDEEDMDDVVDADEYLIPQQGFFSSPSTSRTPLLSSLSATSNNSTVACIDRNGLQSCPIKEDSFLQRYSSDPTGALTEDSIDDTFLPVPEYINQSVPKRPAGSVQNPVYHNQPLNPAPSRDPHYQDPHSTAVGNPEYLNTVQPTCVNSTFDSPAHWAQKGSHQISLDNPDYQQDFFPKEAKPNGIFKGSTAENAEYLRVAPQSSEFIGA
EGFR (d746-750), sequence (P00533 other isoform, or with tags, fused parts or gaps del 1-694/del 746-750 limits assumed): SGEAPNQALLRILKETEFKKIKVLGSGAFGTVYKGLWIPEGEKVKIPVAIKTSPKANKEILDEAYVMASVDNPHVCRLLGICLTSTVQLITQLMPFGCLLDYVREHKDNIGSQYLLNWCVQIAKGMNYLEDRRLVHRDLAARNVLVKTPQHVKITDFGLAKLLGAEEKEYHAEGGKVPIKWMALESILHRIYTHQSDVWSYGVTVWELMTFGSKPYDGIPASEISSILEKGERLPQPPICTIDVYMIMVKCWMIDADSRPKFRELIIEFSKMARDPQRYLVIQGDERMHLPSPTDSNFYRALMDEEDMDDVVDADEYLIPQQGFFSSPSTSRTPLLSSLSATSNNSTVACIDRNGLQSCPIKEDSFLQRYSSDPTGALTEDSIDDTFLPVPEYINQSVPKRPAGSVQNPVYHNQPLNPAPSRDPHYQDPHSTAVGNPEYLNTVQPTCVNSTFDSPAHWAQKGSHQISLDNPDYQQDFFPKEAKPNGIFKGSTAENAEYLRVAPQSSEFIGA

IC50 [1] | IC50 [2] | IC50 [3] | SMILES
0.7 nM | 0.4 nM | 0.7 nM | COc1cc2ncnc(-c3cn(C)nc3-c3ccccc3)c2nc1NC(=O)c1cnc(C2CC2)s1 [Example 318, 2-cyclopropyl-N-(7-methoxy-4-(1-methyl-3-phenyl-1H-pyrazol-4-yl)pyrido[3,2-d]pyrimidin-6-yl)thiazole-5-carboxamide]
1.1 nM | 0.7 nM | 1.4 nM | CCOc1cc2ncnc(-c3cn(C)nc3-c3ccccc3)c2cc1NC(=O)c1cccnc1 [Example 296, N-(7-ethoxy-4-(1-methyl-3-phenyl-1H-pyrazol-4-yl)quinazolin-6-yl)nicotinamide]
0.6 nM | 1.1 nM | 1.7 nM | CCn1cc(-c2ncnc3cc(OC)c(NC(=O)C45CC(C4)C5)nc23)c(-c2ccccc2)n1 [Example 315, N-(4-(1-ethyl-3-phenyl-1H-pyrazol-4-yl)-7-methoxypyrido[3,2-d]pyrimidin-6-yl)bicyclo[1.1.1]pentane-1-carboxamide]
3.5 nM | 2 nM | 6.8 nM | CN(C)CCOc1cc2ncnc(-c3cn(C)nc3-c3ccccc3)c2nc1NC(=O)C1(C(F)(F)F)CC1 [Example 434, N-(7-(2-(dimethylamino)ethoxy)-4-(1-methyl-3-phenyl-1H-pyrazol-4-yl)pyrido[3,2-d]pyrimidin-6-yl)-1-(trifluoromethyl)cyclopropane-1-carboxamide]
3.5 nM | 0.8 nM | 4.9 nM | Cn1cc(-c2ncnc3cc(OC(F)F)c(NC(=O)C4(C(F)(F)F)CC4)nc23)c(-c2ccccc2)n1 [Example 465, N-(7-(difluoromethoxy)-4-(1-methyl-3-phenyl-1H-pyrazol-4-yl)pyrido[3,2-d]pyrimidin-6-yl)-1-(trifluoromethyl)cyclopropane-1-carboxamide]
0.6 nM | 1 nM | 1.5 nM | COc1cc2ncnc(-c3cn(CC(F)F)nc3-c3ccccc3)c2cc1NC(=O)c1scnc1C [Example 273, N-(4-(1-(2,2-difluoroethyl)-3-phenyl-1H-pyrazol-4-yl)-7-methoxyquinazolin-6-yl)-4-methylthiazole-5-carboxamide]
7.9 nM | 2.3 nM | 4.5 nM | COc1cc2ncnc(-c3cn(C)nc3-c3ccccc3)c2cc1OC(=O)N1CCOC[C@H]1C [Example 61, 7-methoxy-4-(1-methyl-3-phenyl-1H-pyrazol-4-yl)quinazolin-6-yl (R)-3-methylmorpholine-4-carboxylate]
0.8 nM | 1 nM | 1.7 nM | COc1cc2ncnc(-c3cn(C)nc3-c3ccccc3)c2nc1NC(=O)C1CC1 [Example 355, N-(7-methoxy-4-(1-methyl-3-phenyl-1H-pyrazol-4-yl)pyrido[3,2-d]pyrimidin-6-yl)cyclopropanecarboxamide]
55.7 nM | 7 nM | 2.9 nM | CCC(=O)Nc1cc2c(-c3cnn(CC(F)F)c3-c3ccccc3)ncnc2cc1OC [Example 500]
8.3 nM | 3 nM | 6.4 nM | COc1cc2ncnc(-c3cn(C)nc3-c3ccccc3)c2cc1NC(=O)C12CC(N(C)C)(C1)C2 [Example 341, 3-(dimethylamino)-N-(7-methoxy-4-(1-methyl-3-phenyl-1H-pyrazol-4-yl)quinazolin-6-yl)bicyclo[1.1.1]pentane-1-carboxamide trifluoroacetate]
2.5 nM | 1.6 nM | 3.3 nM | COc1cc2ncnc(-c3cn(C)nc3-c3ccccc3)c2cc1NC(=O)C12CC(C1)C2 [Example 340, N-(7-methoxy-4-(1-methyl-3-phenyl-1H-pyrazol-4-yl)quinazolin-6-yl)bicyclo[1.1.1]pentane-1-carboxamide]
4.6 nM | 2.1 nM | 5.6 nM | COc1cc2ncnc(-c3cn(C)nc3-c3ccccc3)c2cc1-c1cccc2cn(C)nc12 [Example 138, 7-methoxy-6-(2-methyl-2H-indazol-7-yl)-4-(1-methyl-3-phenyl-1H-pyrazol-4-yl)quinazoline]
8.1 nM | 3 nM | 5.5 nM | COc1cc2ncnc(-c3cn(C)nc3-c3ccccc3)c2nc1OC(C)c1nnc(C)o1 (stereo not drawn) [Example 27, 2-(1-((7-methoxy-4-(1-methyl-3-phenyl-1H-pyrazol-4-yl)pyrido[3,2-d]pyrimidin-6-yl)oxy)ethyl)-5-methyl-1,3,4-oxadiazole]
2.5 nM | 0.8 nM | 1.8 nM | COc1cc2ncnc(-c3cn(C)nc3-c3ccccc3)c2cc1NC(=O)c1ccccc1C [Example 197, N-(7-methoxy-4-(1-methyl-3-phenyl-1H-pyrazol-4-yl)quinazolin-6-yl)-2-methylbenzamide]
1.6 nM | 1 nM | 2.3 nM | COc1cc2ncnc(-c3cn(CC(F)F)nc3-c3ccccc3)c2nc1NC(=O)[C@@]12C[C@@H]1CN(C)C2 (single isomer, unassigned) [Example 397, (1R,5R)—N-(4-(1-(2,2-difluoroethyl)-3-phenyl-1H-pyrazol-4-yl)-7-methoxypyrido[3,2-d]pyrimidin-6-yl)-3-methyl-3-azabicyclo[3.1.0]hexane-1-carboxamide or (1S,5S)—N-(4-(1-(2,2-difluoroethyl)-3-phenyl-1H-pyrazol-4-yl)-7-methoxypyrido[3,2-d]pyrimidin-6-yl)-3-methyl-3-azabicyclo[3.1.0]hexane-1-carboxamide]
12.4 nM | 2.8 nM | 8.3 nM | COc1cc2ncnc(-c3cn(C)nc3-c3c(F)cccc3F)c2cc1OC(=O)N1CCOC[C@@H]1C [Example 67, 4-(3-(2,6-difluorophenyl)-1-methyl-1H-pyrazol-4-yl)-7-methoxyquinazolin-6-yl (S)-3-methylmorpholine-4-carboxylate]
7.2 nM | 2.9 nM | 12.7 nM | CN(C)C12CC(C(=O)Nc3nc4c(-c5cn(C)nc5-c5ccc(F)cc5)ncnc4cc3OC3CC3)(C1)C2 [Example 461, N-{7-cyclopropoxy-4-[3-(4-fluorophenyl)-1-methyl-1H-pyrazol-4-yl]pyrido[3,2-d]pyrimidin-6-yl}-3-(dimethylamino) bicyclo[1.1.1]pentane-1-carboxamide]
7.3 nM | 0.8 nM | 2.9 nM | COCc1cc2c(-c3cn(C)nc3-c3ccccc3)ncnc2cc1OC [Example 120, 7-methoxy-6-(methoxymethyl)-4-(1-methyl-3-phenyl-1H-pyrazol-4-yl)quinazoline]
0.4 nM | 0.7 nM | 1.3 nM | CCC(=O)Nc1cc2c(-c3cn(C)nc3-c3c(F)cccc3F)ncnc2cc1-c1ccn(C)n1 [Example 453, N-(4-(3-(2,6-difluorophenyl)-1-methyl-1H-pyrazol-4-yl)-7-(1-methyl-1H-pyrazol-3-yl)quinazolin-6-yl)propionamide]
1.1 nM | 0.8 nM | 1.4 nM | CCn1cc(-c2ncnc3cc(OC)c(NC(=O)c4cnn(C(F)(F)F)c4)nc23)c(-c2ccccc2)n1 [Example 314, N-(4-(1-ethyl-3-phenyl-1H-pyrazol-4-yl)-7-methoxypyrido[3,2-d]pyrimidin-6-yl)-1-(trifluoromethyl)-1H-pyrazole-4-carboxamide]
953 nM | 78 nM | 70.5 nM | Cc1nn(C)c(-c2ccccc2)c1-c1ncnc2cc(-c3cnn(C)c3)ccc12 [Example 481, 4-(1,3-dimethyl-5-phenyl-1H-pyrazol-4-yl)-7-(1-methyl-1H-pyrazol-4-yl)quinazoline]
0.4 nM | 0.7 nM | 1.1 nM | CCn1cc(-c2ncnc3cc(OC)c(NC(=O)c4cnn(CCN(C)C)c4)nc23)c(-c2ccccc2)n1 [Example 319, 1-(2-(dimethylamino)ethyl)-N-(4-(1-ethyl-3-phenyl-1H-pyrazol-4-yl)-7-methoxypyrido[3,2-d]pyrimidin-6-yl)-1H-pyrazole-4-carboxamide]
1.3 nM | 1.4 nM | 2.6 nM | CCn1cc(-c2ncnc3cc(OC)c(NC(=O)[C@@]45C[C@@H]4CN(C)C5)nc23)c(-c2ccc(F)cc2)n1 (single isomer, unassigned) [Example 398, (1S,5S)—N-(4-(1-ethyl-3-(4-fluorophenyl)-1H-pyrazol-4-yl)-7-methoxypyrido[3,2-d]pyrimidin-6-yl)-3-methyl-3-azabicyclo[3.1.0]hexane-1-carboxamide or (1R,5R)—N-(4-(1-ethyl-3-(4-fluorophenyl)-1H-pyrazol-4-yl)-7-methoxypyrido[3,2-d]pyrimidin-6-yl)-3-methyl-3-azabicyclo[3.1.0]hexane-1-carboxamide]
1.2 nM | 0.9 nM | 1.6 nM | COc1cc2ncnc(-c3cn(C)nc3-c3ccccc3)c2nc1NC(=O)C1(C(F)(F)F)CC1 [Example 361, N-(7-methoxy-4-(1-methyl-3-phenyl-1H-pyrazol-4-yl)pyrido[3,2-d]pyrimidin-6-yl)-1-(trifluoromethyl)cyclopropane-1-carboxamide]
1.6 nM | 0.7 nM | 1.6 nM | COc1cc2ncnc(-c3cn(C)nc3-c3ccccc3)c2nc1NC(=O)c1ccccc1F [Example 359, 2-fluoro-N-(7-methoxy-4-(1-methyl-3-phenyl-1H-pyrazol-4-yl)pyrido[3,2-d]pyrimidin-6-yl)benzamide]
5.4 nM | 0.8 nM | 1.3 nM | COc1cc2ncnc(-c3cn(C)nc3-c3ccccc3)c2cc1N [Preparation 190]
